Measured values published in US9273364B2 (Kyoto University, priority 2010, dated 2016).
Counter-ions that a name gives are not always drawn.

What follows are compounds tested on alternative splicing of a specific gene (GFP/RFP reporter) (assay: Compound screen with GFP/RFP alternative splicing reporter). Settings: not given.
Assay type: cell-based
Description: Strategy of a method for testing whether or not a compound to be tested affects an alternative splicing of a specific gene in a mammalian multicelluar organism is shown in FIG. 14.
The reporter proteins used for the method are GFP and FRP.

SMILES	Number of cells	ratio in column 11 (head not shown in this continuation table; table sorted by it in descending order; apparently GFP/RFP reporter ratio)	GFP/RFP (Ctrl = 1)
Cc1cn([C@H]2C[C@H](N=[N+]=[N-])[C@@H](CO)O2)c(=O)[nH]c1=O (racemic) [3′-azido-3′-deoxythymidine]	2356	–	–
C=C1/C(=C\C=C2/CCC[C@]3(C)[C@@H]([C@H](C)CCCC(C)C)CC[C@@H]23)C[C@@H](O)C[C@@H]1O (racemic) [Alfacalcidol]	861	–	–
CC(C)CN(C[C@@H](O)[C@H](Cc1ccccc1)NC(=O)O[C@H]1CCOC1)S(=O)(=O)c1ccc(N)cc1 (racemic) [Amprenavir]	2564	–	–
C[C@@H](O[C@H]1OCCN(Cc2n[nH]c(=O)[nH]2)[C@H]1c1ccc(F)cc1)c1cc(C(F)(F)F)cc(C(F)(F)F)c1 (racemic) [Aprepitant]	2165	–	–
Cc1ccc(-c2cc(C(F)(F)F)nn2-c2ccc(S(N)(=O)=O)cc2)cc1 (racemic) [Celecoxib]	3060	–	–
CN(C)CCC(c1ccc(Cl)cc1)c1ccccn1 (racemic) [Chlorpheniramine maleate]	3724	–	–
C[C@]12CCC(=O)C=C1CC[C@@H]1[C@@H]2[C@@H](O)C[C@@]2(C)[C@H]1CC[C@]2(O)C(=O)CO (racemic) [Hydrocortisone]	3105	–	–
CC(C)NCC(O)c1ccc(O)c(O)c1.Cl (racemic) [Isoproterenol HCl (rac)]	3953	–	–
O=NN(CCCl)C(=O)NC1CCCCC1 (racemic) [Lomustine]	1241	–	–
CCc1nn(CCCN2CCN(c3cccc(Cl)c3)CC2)c(=O)n1CCOc1ccccc1 (racemic) [Nefazodone]	2966	–	–
C#C[C@]1(O)CC[C@H]2[C@@H]3CCC4=CC(=O)CC[C@@H]4[C@H]3CC[C@@]21C (racemic) [Norethindrone]	3205	–	–
CCOC(=O)[C@H](CCc1ccccc1)N[C@@H](C)C(=O)N1Cc2ccccc2C[C@H]1C(=O)O (racemic) [Quinapril HCl]	3149	–	–
NC(=O)c1ncn([C@@H]2O[C@H](CO)[C@@H](O)[C@H]2O)n1 (racemic) [Ribavirin]	3140	–	–
CCCc1nc2c(C)cc(-c3nc4ccccc4n3C)cc2n1Cc1ccc(-c2ccccc2C(=O)O)cc1 (racemic) [Telmisartan]	3042	–	–
Cc1c(Cl)cccc1Nc1ccccc1C(=O)O (racemic) [Tolfenamic acid]	2697	–	–
NC1CCN(c2nc3c(cc2F)c(=O)c(C(=O)O)cn3-c2ccc(F)cc2F)C1 (racemic) [Tosufloxacin]	2590	–	–
N[C@@H]1C[C@H]1c1ccccc1 (racemic) [Tranylcypromine]	–	0.7492	–
CC[C@@]1(O)C(=O)OCc2c1cc1n(c2=O)Cc2cc3cc(O)ccc3nc2-1 [10-hydroxycamptothecin]	–	–	3.114

Same assay, conditions: 50 ng/mL

SMILES	Number of cells
CCCCC(C)(O)C/C=C/[C@H]1[C@H](O)CC(=O)[C@@H]1CCCCCCC(=O)OC (mixture of isomers) [Misoprostol]	3052
O=c1[nH]cc(F)c(=O)[nH]1 (racemic) [5-fluorouracil]	433
COc1ccc(CC2c3cc(OC)c(OC)cc3CC[N+]2(C)CCC(=O)OCCCCCOC(=O)CC[N+]2(C)CCc3cc(OC)c(OC)cc3C2Cc2ccc(OC)c(OC)c2)cc1OC (racemic) [Atracurium besylate]	3056
c1ccc(-c2ccc(C(c3ccccc3)n3ccnc3)cc2)cc1 (racemic) [Bifonazole]	921
CC(C)C[C@H](NC(=O)[C@H](Cc1ccccc1)NC(=O)c1cnccn1)B(O)O (racemic) [Bortezomib]	74
Nc1nc(Cl)nc2c1ncn2[C@@H]1O[C@H](CO)[C@@H](O)[C@@H]1F (racemic) [Clofarabine]	19
CCN(CC)CCOc1ccc(C(=C(Cl)c2ccccc2)c2ccccc2)cc1 (racemic) [Clomiphene citrate]	95
N=c1ccn2c(n1)O[C@H]1[C@H](O)[C@@H](CO)O[C@H]12 (racemic) [Cyclocytidine HCl]	73
Nc1ccn([C@@H]2O[C@H](CO)[C@@H](O)[C@@H]2O)c(=O)n1 (racemic) [Cytarabine]	48
CC/C(=C(/CC)c1ccc(O)cc1)c1ccc(O)cc1 (racemic) [Diethylstilbestrol]	542
CCN(CC)C(=S)SSC(=S)N(CC)CC (racemic) [Disulfiram]	31
COC(=O)Nc1nc2ccc(Sc3ccccc3)cc2[nH]1 (racemic) [Fenbendazole]	278
O=c1[nH]c(=O)n([C@H]2C[C@H](O)[C@@H](CO)O2)cc1F (racemic) [Floxuridine]	142
Nc1ccn([C@@H]2O[C@H](CO)[C@@H](O)C2(F)F)c(=O)n1 (racemic) [Gemcitabine HCl]	156
CC(C)C(=O)c1c(C(C)C)nn2ccccc12 (racemic) [Ibudilast]	3018
CC(=O)[C@]1(O)Cc2c(O)c3c(c(O)c2[C@@H](O[C@H]2C[C@H](N)[C@H](O)[C@H](C)O2)C1)C(=O)c1ccccc1C3=O (racemic) [Idarubicin]	34
O=c1[nH]c(=O)n([C@H]2C[C@H](O)[C@@H](CO)O2)cc1I (racemic) [Idoxuridine]	1924
CC(C)Cn1cnc2c(N)nc3ccccc3c21 (racemic) [Imiquimod]	1944
CCC(C)n1ncn(-c2ccc(N3CCN(c4ccc(OCC5COC(Cn6cncn6)(c6ccc(Cl)cc6Cl)O5)cc4)CC3)cc2)c1=O (racemic) [Itraconazole]	344

SMILES	Number of cells
Cc1oncc1C(=O)Nc1ccc(C(F)(F)F)cc1 (racemic) [Leflunomide]	1963
C[C@H]1C[C@@H]2[C@H]([C@@H](O)C[C@@]3(C)[C@H]2CC[C@]3(O)C(=O)CO)[C@@]2(C)C=CC(=O)C=C12 (racemic) [Methylprednisolone]	3084
Clc1ccc(COC(Cn2ccnc2)c2ccc(Cl)cc2Cl)c(Cl)c1 (racemic) [Miconazole]	808
Clc1ccc(CO/N=C(\Cn2ccnc2)c2ccc(Cl)cc2Cl)c(Cl)c1 (racemic) [Oxiconazole nitrate]	2732
CC(C(=O)O)c1ccc2c(c1)Cc1cccnc1O2 (racemic) [Pranoprofen]	3050
C[C@]12C=CC(=O)C=C1CC[C@@H]1[C@@H]2[C@@H](O)C[C@@]2(C)[C@H]1CC[C@]2(O)C(=O)CO (racemic) [Prednisolone]	2900
CN1CCCN=C1/C=C/c1cccs1 (racemic) [Pyrantel pamoate]	2985
O=C(NC(Cc1cc(=O)[nH]c2ccccc12)C(=O)O)c1ccc(Cl)cc1 (racemic) [Rebamipide]	2922
Clc1ccc(C(Cn2ccnc2)OCc2csc3c(Cl)cccc23)c(Cl)c1 (racemic) [Sertaconazole]	1863
COc1cc(NS(=O)(=O)c2ccc(N)cc2)nc(OC)n1 (racemic) [Sulfadimethoxine]	3092
COc1ncnc(NS(=O)(=O)c2ccc(N)cc2)c1OC (racemic) [Sulfadoxine]	2876
CN1C(C(=O)Nc2ccccn2)=C(O)c2sccc2S1(=O)=O (racemic) [Tenoxicam]	2916
COc1cc2nc(N3CCN(C(=O)C4CCCO4)CC3)nc(N)c2cc1OC (racemic) [Terazosin HCl]	3112
Clc1ccc(C(Cn2ccnc2)OCc2ccsc2Cl)c(Cl)c1 (racemic) [Tioconazole]	850
CC[C@@]1(O)C(=O)OCc2c1cc1n(c2=O)Cc2cc3c(CN(C)C)c(O)ccc3nc2-1 (racemic) [Topotecan]	259
CN(C)CCOc1ccc(/C(=C(/CCCl)c2ccccc2)c2ccccc2)cc1 (racemic) [Toremifene]	250
CC(C)(C)NCC(O)c1ccccc1Cl (racemic) [Tulobuterol]	3489
Nc1ncnc2c1ncn2[C@@H]1O[C@H](CO)[C@@H](O)[C@@H]1O (racemic) [Vidarabine]	1482

Same assay, conditions: cell count after compound at final conc.; Ctrl number of cells 4303-5627

SMILES	Number of cells
COC(=O)N/N=C/c1c[n+]([O-])c2ccccc2[n+]1[O-] (racemic) [Carbadox]	2293
O=C(O)CCCc1ccc(N(CCCl)CCCl)cc1 (racemic) [Chlorambucil]	841
Cc1nc(C)c(Cl)c(O)c1Cl (racemic) [Clopidol]	3230
C[C@]12CC[C@@H]3c4ccc(O)cc4C[C@@H](CCCCCCCCC[S+]([O-])CCCC(F)(F)C(F)(F)F)[C@H]3[C@@H]1CC[C@@H]2O (mixture of isomers) [Fulvestrant]	2156
N[C@@H](Cc1ccc(N(CCCl)CCCl)cc1)C(=O)O (racemic) [Melphalan]	483
COc1c(C)c2c(c(O)c1C/C=C(\C)CCC(=O)OCCN1CCOCC1)C(=O)OC2 (racemic) [Mycophenolate mofetil]	500
COC(=O)Nc1nc2ccc([S+]([O-])c3ccccc3)cc2[nH]1 (racemic) [Oxfendazole]	1712
CCCOc1ccc2nc(NC(=O)OC)[nH]c2c1 (racemic) [Oxibendazole]	786
COc1ccnc(C[S+]([O-])c2nc3ccc(OC(F)F)cc3[nH]2)c1OC (racemic) [Pantoprazole]	3112
CC(N)C(O)c1ccccc1 (racemic) [Phenylpropanolamine]	2551
CCC[S+]([O-])c1ccc2[nH]c(NC(=O)OC)nc2c1 (racemic) [Ricobendazole]	1381
C[N+](C)(C)CCOC(=O)CCC(=O)OCC[N+](C)(C)C (racemic) [Succinylcholine]	2727
CC[C@@]1(O)C(=O)OCc2c1cc1n(c2=O)Cc2cc3cc(O)ccc3nc2-1 [10-hydroxycamptothecin]	541
CC[C@@]1(O)C[C@H](O[C@H]2C[C@H](N(C)C)[C@H](O[C@H]3C[C@H](O)[C@H](O[C@H]4CCC(=O)[C@H](C)O4)[C@H](C)O3)[C@H](C)O2)c2c(cc3c(c2O)C(=O)c2c(O)cccc2C3=O)[C@H]1C(=O)OC [Aclarubicin]	10

Same assay, conditions: reporter ratio relative to control = 1; final conc. per compound (μM, 50 ng/mL)

SMILES	GFP/RFP (Ctrl = 1)
CC(C)NCC(O)c1ccc(O)c(O)c1.Cl (racemic) [Isoproterenol HCl (rac)]	1.614
